# Measurements taken from USRE43244E1, “Phenylethylamines and condensed rings variants as prodrugs of catecholamines, and their use” (priority 2001, dated 2012).
# Counter-ions that a name gives are not always drawn.
# Columns and labels:
# [1] = tested on: rodents; conditions: cited from earlier work; for Dopaminergic stereotypic behavioral effects (sniffing, rearing): gross behavioral observations, certain dosages, rodents; for Locomotor activity: photocell motility meters
# [2] = tested on: DA metabolites DOPAC and HVA; conditions: no NSD1015 treatment; cited from earlier work
# [3] = biological target: D3 dopamine receptor (Rattus norvegicus, UniProt P19020); conditions: among screened classical and atypical neuroleptics; cited from earlier work
# [4] = tested on: Dopa accumulation; conditions: normal animals, after NSD1015; cited from earlier work
# [5] = tested on: rats; test: Behavioral testing in rats of GMC6650; type: in vivo, rat
# Experimental: Behavioral Testing in Rats of Compound GMC6650 (Example 6)
# One rat, weighing about 350 g, was injected SC in the neck with 1 μmol/kg of GMC6650. Another rat, weighing about 350 g, was injected PO with the same dose. The drug (3.4 mg) was initially dissolved in: ethanol (50 μL), 1 M acetic acid (2 drops), and water (1.4 mL), corresponding to 15 μmol per 1.5 mL, which means a concentration of 10 μmol/mL. By first diluting that solution 10 times and injecting 0.35 mL, the given dose will be 1 μmol/kgμmol/kg. This goes for both of rats.
# Stereotypy was intense and was registered for several hours by visual inspection. […] The next morning, the SC rat was still active, while the PO rat was resting. Duration of action was thus ≧10 h for both sc and po administration of 1 μmol/kg.
# [6] = tested on: DA receptors; conditions: cited from earlier work
# [7] = tested on: rats; conditions: cited from earlier work
# [8] = 1 μmol/kg, SC or PO (same pattern in both rats)
# D3 dopamine receptor, sequence (P19020 whole entry): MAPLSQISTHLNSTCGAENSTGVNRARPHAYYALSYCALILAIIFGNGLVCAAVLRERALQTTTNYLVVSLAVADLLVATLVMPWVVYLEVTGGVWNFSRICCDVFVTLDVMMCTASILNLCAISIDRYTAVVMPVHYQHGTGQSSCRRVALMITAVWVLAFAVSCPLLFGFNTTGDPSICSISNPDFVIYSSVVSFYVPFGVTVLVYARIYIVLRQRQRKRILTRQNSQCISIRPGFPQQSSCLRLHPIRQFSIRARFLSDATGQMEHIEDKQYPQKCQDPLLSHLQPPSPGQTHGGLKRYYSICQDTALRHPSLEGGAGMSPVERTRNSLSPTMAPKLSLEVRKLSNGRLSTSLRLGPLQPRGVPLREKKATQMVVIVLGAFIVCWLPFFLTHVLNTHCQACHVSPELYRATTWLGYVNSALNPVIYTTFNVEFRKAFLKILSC
structure (smiles),measurement,setting,value
CCCN(CCC)CCC1=CC(=O)CCC1 (as salt: hydrochloride),melting point,,95 to 97 °C
"CCCN(CCC)[C@@H]1CCc2c(OC)cccc2[C@@H]1C (relative stereo) [(+)-UH232, (+)-cis-1S,2R-5-methoxy-1-methyl-2-(N,N-di-n-propylamino)tetralin]","Dopaminergic stereotypic behavioral effects (sniffing, rearing)",[1],weak
same,Locomotor activity,[1],increase the locomotor activity
same,Levels of DA metabolites DOPAC and HVA,[2],raise the levels
same,Preference for the D3 site,[3],highest preference for the D3 site
same,Dopa accumulation,[4],raise the Dopa accumulation
"CCCN[C@@H]1CCc2c(OC)cccc2[C@@H]1C (relative stereo) [(+)-AJ76, (+)-cis-1S,2R-5-methoxy-1-methyl-2-(N-n-propylamino)tetralin]","Dopaminergic stereotypic behavioral effects (sniffing, rearing)",[1],weak
same,Locomotor activity,[1],increase the locomotor activity
same,Levels of DA metabolites DOPAC and HVA,[2],raise the levels
same,Preference for the D3 site,[3],highest preference for the D3 site
same,Dopa accumulation,[4],raise the Dopa accumulation
CCN(CC)CCC1=CC(=O)CCC1 (as salt: hydrochloride),melting point,,148 to 149 °C
CCCN1CCCC(C2=CC(=O)CCC2)C1 (stereo not shown) (as salt: hydrochloride),melting point,,184 to 185 °C
"CCCN1CCC[C@@H]2CC3=C(CCCC3=O)C[C@H]21 (relative stereo) [GMC6650, 1-Propyl-trans-2,3,4,4a,5,7,8,9,10,10a-decahydrobenzo[g]quinolin-6-one]",Activity the next morning,[5]; 1 μmol/kg PO,resting
same,Activity the next morning,[5]; 1 μmol/kg SC,still active
same,Duration of action,[5]; 1 μmol/kg po,≥ 10 h
same,Duration of action,[5]; 1 μmol/kg sc,≥ 10 h
same,Stereotypy after 10 hours,"[5]; 1 μmol/kg, SC and PO rat, 10 hours after dosing",still showing signs of stereotypy
same,Time until clear signs of stereotypy,[5]; [8],30 min
same,"Time until obvious dopaminergic effects (chewing, sniffing, licking, penile grooming, grooming)",[5]; [8],15 min
same,"Time until rats became sedated, closing or partly closing their eyes",[5]; [8],10 min
same,"Stereotypy, visual inspection","[5]; 1 μmol/kg, SC or PO, registered for several hours",intense
"CCCN(CCC)C1CCC2=C(CCCC2=O)C1 (racemic) [(±)-5-keto-DPATT, (±)-5-keto-2-N,N-di-n-propylamino-tetrahydrotetralin]",Affinity to DA receptors (in vitro binding),[6],no affinity
same,Dopaminergic effects in vivo,[7],does possess dopaminergic effects
CCCN(CCC1=CC(=O)CCC1)CCc1ccccc1 (as salt: hydrochloride),melting point,,110 to 112 °C
